Measurements as given in US4208409A, “N-[(phosphinyl or phosphinothioyl)amino]thio-methylcarbamates and pesticidal methods” (priority 1978, dated 1980).
Read-outs that look alike come from different tables or passages of the source.

Legend:
[1] = test system: yellow-fever mosquito (YFM); experiment: whole plant or invertebrate; assay type: in vivo; conditions: Aedes aegypti
Text: (§1) Representative pest species have been used, illustratively, order Lepidoptera, more specifically, the southern armyworm (SAW), (Prodenia eridania Cramer), the tobacco budworm (TBW), (Heliothis virescens), and the cabbage looper (CL) (Trichoplusia ni); order Acarina, more specifically, the two-spotted spider mite (TSSM) (Tetranychus urticae Koch); order Diptera, more specifically, the housefly (HF) (Musca domestica Linnaeus) or the yellow-fever mosquito (YFM) (Aedes aegypti); order Orthoptera, more specifically, the house cricket (HC) (Acheta domesticus Linnaeus) or the German cockroach (GC) (Blatella germanica Linnaeus); order Coleoptera, more specifically, the cotton boll weevil (BW) (Anthonomus grandis Boheman).
(§2) Preparation of tested chemicals--Analytical samples of each were dissolved in acetone. These acetone solutions were applied as such or portions of them were diluted with a Tween 20 "wet water" or a 10% sucrose "wet water". The "wet water" itself contained 0.132% v/v of Tween 20 (polyoxyethylene sorbitan monolaurate).
The yellow fever mosquito larvae test was effected by adding the appropriate amount of a wet water and acetone solution of the test chemical to 100 ml distilled water in a 5-ounce waxed paper cup. Ten mosquito larvae were added. […]
(§3) The tests were evaluated for insect kill (including moribund and knocked down) after 24, 48, and sometimes 72 hours.

[2] = test system: southern armyworm (SAW); experiment: southern armyworm mortality test (bush lima bean leaf dip); assay type: in vivo, Prodenia eridania Cramer; conditions: Spodoptera eridania, foliar
Text: as §1, §2
(§4) The southern armyworm and cabbage looper tests were effected with Henderson bush lima bean foliage characterized by two primary leaves per replicate. The leaves were dipped into a "wet water" emulsion of a test chemical, allowed to dry, and then placed on a moistened filter disk in a 9 cm plastic petri dish. Five larva of the respective test insects were put on the leaves, the cover of the petri dish was replaced, and it was set aside for future evaluation. Three replications for each treatment rate were prepared.
(§5) The southern armyworm, house cricket, boll weevil, house fly, and cabbage looper tests were held at 22° C., while the yellow fever mosquito larvae tests were held at 27° C.
as §3

[3] = crystallinity; assay type: physicochemical
[4] = test system: cabbage looper (CL); experiment: cabbage looper mortality test (bush lima bean leaf dip); assay type: in vivo; conditions: Trichoplusia ni, foliar; for mortality at 11 ppm: rate 11 ppm
Text: as §1, §2, §4, §5, §3

[5] = test system: cotton boll weevil (BW); experiment: boll weevil mortality test (saturated cotton wad); assay type: in vivo, Anthonomus grandis Boheman
Text: as §1, §2
(§6) The house fly and boll weevil tests were effected by saturating a golf-ball size wad of cotton with 10 ml of a "10% wet sugar water" preparation of the test chemical. […]
as §3

[6] = test system: housefly (HF); experiment: house fly mortality test (saturated cotton wad); assay type: in vivo, Musca domestica Linnaeus; conditions: Musca domestica
Text: as §1, §2, §6, §3

[7] = test system: eggplant; experiment: phytotoxicity on the sensitive crop, eggplant, compared with the parent compound; assay type: in vivo
Text: (§7) In other tests, the phytotoxicity, residual effectiveness, and animal toxicity of e.g. Methyl N-[[[[[(diethoxyphosphinothioyl)isopropylamino]thio]methylamino]carbonyl]oxy]ethanimidothioate were compared with the parent compound, methyl N-[[(methylamino)carbonyl]oxy]ethanimidothioate. […] The parent compound had corresponding index values of 4.25 and 5.0.

[8] = test system: plant; experiment: phytotoxicity compared with the parent compound; assay type: in vivo; conditions: for average phytotoxicity index: after eight days, scale 0 = no damage, 10 = complete kill of plant
Text: as §7

[9] = acute oral toxicity to male rats; assay type: in vivo, rat; conditions: rat, in vivo
[10] = test system: male rats; experiment: acute oral toxicity to male rats; assay type: in vivo, rat
[11] = test system: southern armyworm larvae; experiment: foliar residual effectiveness against southern armyworm larvae on lima bean seedlings; assay type: in vivo, Prodenia eridania Cramer
Text: These compounds were also compared for their foliar residual effectiveness against southern armyworm larvae on lima bean seedlings. The compound Methyl N-[[[[[(diethoxyphosphinothioyl)isopropylamino]thio]methylamino]carbonyl]oxy]ethanimidothioate of this invention was producing 100 percent mortality seven weeks after the treatment was applied, whereas the activity of the parent compound at an equivalent rate had dissipated to 20% by the 14th day.

[12] = test system: tobacco budworm (TBW); experiment: tobacco budworm mortality test; assay type: in vivo; conditions: Heliothis virescens
Text: as §1, §2, §3

[13] = Mammalian Toxicity, oral LD50, rat; conditions: in vivo

Q: Which mortality at 0.6 ppm ([1]; rate 0.6 ppm) does the source give for `CCCN(SN(C)C(=O)Oc1cc(C)c(N(C)C)c(C)c1)P(=S)(OCC)OCC` [4-(dimethylamino)-3,5-xylyl [[(diethoxyphosphinothioyl)-n-propylamino]thio]methylcarbamate] here?
A: Its mortality at 0.6 ppm is 100%.

Q: What about the mortality at 100 ppm [2] of the same compound?
A: The mortality at 100 ppm was 100%.

Q: With `CSC(C)=NOC(=O)N(C)SN(C(C)(C)C)P1(=S)OCC(C)(C)CO1` [Methyl N-[[[[[(5,5-dimethyl-2-thioxo-1,3,2-dioxaphosphorinano-2-yl)tert-butylamino]thio]methylamino]carbonyl]oxy]ethanimidothioate] as the compound, how does the crystallinity [3] read?
A: The crystallinity was “extremely crystalline”.

Q: For `CCOP(=S)(OCC)N(SN(C)C(=O)ON=C(C)SC)C(C)C` [Methyl N-[[[[[(diethoxyphosphinothioyl)isopropylamino]thio]methylamino]carbonyl]oxy]ethanimidothioate], which mortality at 3.3 ppm ([4]; CL, rate 3.3 ppm, read-out: Mortality) is on record?
A: Its mortality at 3.3 ppm is 100%.

Q: What about the mortality at 1 ppm ([1]; rate 1.0 ppm) of the same compound?
A: The mortality at 1 ppm was 100%.

Q: And the mortality at 3.3 ppm [2]?
A: The mortality at 3.3 ppm was 100%.

Q: And the mortality at 50 ppm ([5]; BW, rate 50 ppm)?
A: Its mortality at 50 ppm is 60%.

Q: What about the mortality at 25 ppm ([6]; HF, rate 25 ppm, read-out: Mortality) of the same compound?
A: Its mortality at 25 ppm is 80%.

Q: What about the “phytotoxicity compared with parent compound” value [7] of the same compound?
A: The value was “markedly less phytotoxic”.

Q: What about the average phytotoxicity index ([8]; 300 ppm) of the same compound?
A: Its average phytotoxicity index is “about 1.0”.

Q: What about the average phytotoxicity index ([8]; 600 ppm) of the same compound?
A: The average phytotoxicity index was ~1.5.

Q: And the “phytotoxicity compared with parent compound” value ([8]; in general)?
A: Its value is “in general less phytotoxic than the parent”.

Q: And the LD50 [9]?
A: Its LD50 is 105 mg/kg.

Q: And the “oral toxicity relative to the parent methylcarbamate” value [10]?
A: Its value is “less than one fourth as toxic as the parent methylcarbamate”.

Q: And the “mortality, foliar residual effectiveness” value ([11]; seven weeks after the treatment was applied, 70560 min)?
A: The value was 100%.

Q: With `COP(=S)(c1ccccc1)N(SN(C)C(=O)ON=C(C)SC)C(C)C` (centres unmarked) [Methyl N-[[[[[[methoxy(phenyl)phosphinothioyl]isopropylamino]thio]methylamino]carbonyl]oxy]ethanimidothioate] as the compound, how does the mortality at 3.3 ppm [4] read?
A: The mortality at 3.3 ppm was 50%.

Q: And the mortality at 3.3 ppm [2]?
A: The mortality at 3.3 ppm was 90%.

Q: And the mortality at 25 ppm [5]?
A: Its mortality at 25 ppm is 80%.

Q: What about the mortality at 25 ppm [6] of the same compound?
A: Its mortality at 25 ppm is 50%.

Q: What does the source list for `CSC(C)=NOC(=O)N(C)SN(C1CCCCC1)P1(=S)OCC(C)(C)CO1` [Methyl N-[[[[[cyclohexyl(5,5-dimethyl-2-thioxo-1,3,2-dioxaphosphorinan-2-yl)amino]thio]methylamino]carbonyl]oxy]ethanimidothioate]?
A: mortality at 11 ppm ([4]; CL): 87.5%; mortality at 11 ppm [2]: 70%; mortality at 11 ppm [12]: 95%; LD50 [13]: > 8000 mg/kg

Q: For `CSC(C)=NOC(=O)N(C)SN(C(C)C)P1(=S)OCCO1` [Methyl N-[[[[[isopropyl(2-thioxo-1,3,2-phospholan-2-yl)amino]thio]methylamino]carbonyl]oxy]ethanimidothioate], which mortality at 11 ppm ([4]; CL) is on record?
A: Its mortality at 11 ppm is 48%.

Q: What about the mortality at 11 ppm [2] of the same compound?
A: Its mortality at 11 ppm is 40%.

Q: And the mortality at 11 ppm [12]?
A: Its mortality at 11 ppm is 45%.

Q: For `CSC(C)=NOC(=O)N(C)SN(C(C)C)P1(=S)OC(C)CC(C)(C)O1` (centres unmarked) [Methyl N-[[[[[isopropyl(4,4,6-trimethyl-2-thioxo-1,3,2-dioxaphosphorinan-2-yl)amino]thio]methylamino]carbonyl]oxy]ethanimidothioate], which mortality at 11 ppm ([4]; CL) is on record?
A: The mortality at 11 ppm was 92.5%.

Q: Which mortality at 11 ppm ([4]; CL) does the source give for `CCC1(CC)COP(=S)(N(SN(C)C(=O)ON=C(C)SC)C(C)C)OC1` [Methyl N-[[[[[isopropyl(5,5-diethyl-2-thioxo-1,3,2-dioxaphosphorinan-2-yl)amino]thio]methylamino]carbonyl]oxy]ethanimidothioate] here?
A: The mortality at 11 ppm was 95%.

Q: What about the mortality at 11 ppm [2] of the same compound?
A: The mortality at 11 ppm was 60%.

Q: What about the mortality at 11 ppm [12] of the same compound?
A: The mortality at 11 ppm was 100%.

Q: What about the LD50 [13] of the same compound?
A: The LD50 was > 2000 mg/kg.

Q: Which mortality at 11 ppm ([4]; CL) does the source give for `CCC1(CC)COP(=S)(N(SN(C)C(=O)ON=C(C)SC)C2CCCCC2)OC1` [Methyl-[[[[[cyclohexyl(5,5-diethyl-2-thioxo-1,3,2-dioxaphosphorinan-2-yl)amino]thio]methylamino]carbonyl]oxy]ethanimidothioate] here?
A: Its mortality at 11 ppm is 77.5%.

Q: And the mortality at 11 ppm [2]?
A: The mortality at 11 ppm was 70%.

Q: What about the mortality at 11 ppm [12] of the same compound?
A: Its mortality at 11 ppm is 95%.

Q: What about the LD50 [13] of the same compound?
A: Its LD50 is > 8000 mg/kg.

Q: With `CCN(SN(C)C(=O)ON=C(C)SC)P1(=S)OCC(C)(C)CO1` [Methyl-[[[[[ethyl(5,5-dimethyl-2-thioxo-1,3,2-dioxaphosphorinan-2-yl)amino]thio]methylamino]carbonyl]oxy]ethanimidothioate] as the compound, how does the mortality at 11 ppm ([4]; CL) read?
A: The mortality at 11 ppm was 56%.

Q: Which mortality at 11 ppm [2] does the source give for `CSC(C)=NOC(=O)N(C)SN(C(C)C)P1(=S)OCCCO1` [Methyl-[[[[[isopropyl(2-thioxo-1,3,2-dioxaphosphorinan-2-yl)amino]thio]methylamino]carbonyl]oxy]ethanimidothioate] here?
A: The mortality at 11 ppm was 56%.

Q: Which average phytotoxicity index ([8]; 300 ppm) does the source give for `CNC(=O)ON=C(C)SC` [methyl N-[[(methylamino)carbonyl]oxy]ethanimidothioate, reference compound] here?
A: The average phytotoxicity index was 4.25.

Q: And the average phytotoxicity index ([8]; 600 ppm)?
A: Its average phytotoxicity index is 5.0.

Q: And the LD50 [9]?
A: Its LD50 is 17 to 24 mg/kg.

Q: What about the foliar residual activity ([11]; by the 14th day, at an equivalent rate) of the same compound?
A: The foliar residual activity was 20%.
